What was measured:
[1] = tested on: human adult dermal fibroblasts; test: two-dimensional outmigration of fibroblasts from contracted collagen gels over protein coated surfaces; type: cell-based; conditions: for effect of synthetic peptide added to the outmigration assay on migration of fibroblasts onto dried FN: FN coated plates
Procedure: (§1) Primary cultures of human adult dermal fibroblasts, acquired from Marcia Simon (Living Skin Bank, SUNY at Stony Brook), the ATCC (Bethesda, Md.), or the NIA (Bethesda, Md.), are cultured in Dulbecco's modified Eagle's medium (DMEM, Life Technologies) containing 42 mM sodium bicarbonate and supplemented with 100 U/ml penicillin, 100 μg/ml streptomycin, and 10% fetal bovine serum (FBS, HyClone, Logan, Utah), at 37° C. and 5% CO2 /95% air in a humidified atmosphere. The cells are used between passages 4 and 12.
(§2) Fibroblast cultures at 80% confluence are harvested by treatment with 0.05% trypsin/0.01% EDTA. Trypsin is inactivated by addition of soy bean trypsin inhibitor in PBS containing 0.2% BSA. The cells are washed twice with DMEM+2% BSA and resuspended at a concentration of 1×10^6 cells/ml. The fibroblasts are mixed with neutralized collagen (Vitrogen 100, Celtrix Labs., Santa Clara, Calif.), 2% BSA, 30 ng/ml PDGF-BB, 30 μg/ml fibronectin, and concentrated DMEM so that the final concentration of DMEM and sodium bicarbonate is 1x. 600 μl of the cell mixture is added to the wells of a 24-well tissue culture plate, which has been precoated with 2% BSA. The collagen is allowed to polymerize at 37° C. The final concentration of collagen is 1.8 mg/ml and each gel contains 6×10^4 cells. After two hours incubation, the gels are gently detached from the plastic surface to allow contraction with the addition of 0.5 ml DMEM+2% BSA and 30 ng/ml PDGF-BB per well. The gels are incubated overnight at 37° C. in 100% humidity, 5% CO2 and 95% air.
(§3) Fibronectin, its fragments or recombinant domains were diluted with concentrated DMEM to the appropriate concentration. Aliquots of 450 μl protein solution are added to the wells of 24-well tissue culture plates (Becton-Dickinson, Lincoln Park, N.J.). After a 2 hour incubation at 37° C. in 5% CO2, plates were dried overnight at room temperature under sterile conditions.
Plates coated with dried proteins were washed once with PBS and incubated with 2% BSA for 1 hour at 37° C. to block nonspecific binding sites. After washing the plates three times with PBS, contracted-collagen gel organotypic constructs were attached to the coated plates. DMEM, 2% BSA and 30 ng/ml PDGF-BB was added to assay plates so that the medium was level with the top of the collagen gel.
For preparation of "gold standard" transmigration assays containing a dermal organotypic construct surrounded by a fibrin clot as previously described (Greiling and Clark 1997), dried fibrin fibril-coated dishes are washed once with PBS and fibroblast-contracted collagen gels are placed on the surface. Fibrinogen, at a final concentration of 300 μg/ml, is mixed with DMEM and 1.0 U/ml thrombin, added to the wells so that the solution is level with the top of the collagen gel, and allowed to clot at room temperature for 30 min. When needed, other supplements such as 30 ng/ml PDGF-BB are added to the mixture. […] All migration assays are quantified after a 24 hour incubation at 37° C. in 100% humidity, 5% CO2 and 95% air.
The number of migrated cells was quantified under a Nikon inverted phase microscope by visually counting identifiable cell nuclei located outside of the contracted collagen gel in the fibrin gel (transmigration assay) or on the matrix (outmigration assay). Within a given experiment each condition was run in triplicate and means ±SD calculated. […] Statistical differences among conditions can be determined by ANOVA.

[2] = tested on: corneal epithelial wound; conditions: cited from earlier work
[3] = tested on: human adult dermal fibroblasts; test: fibroblast adhesion assay; type: cell-based
Procedure: as §1, §3
Assay plates are prepared as described under fibroblast migration assays. The assay for measuring fibroblast adhesion to matrix proteins are performed essentially as described (Gailit et al. 1993) except that the cell concentration is lowered to 100,000 cells/ml or 10,000 cells/well. […] The absorbance at 590 nm is measured with a dual wavelength microtiter plate reader (THERMOmax, Molecular Devices, Menlo Park, Calif.) and the reading corrected for light scattering by subtraction of the absorbance at 450 nm.

[4] = tested on: human adult dermal fibroblasts; test: three-dimensional transmigration from collagen gel into fibrin gel; type: cell-based
Procedure: as §1, §2
For preparation of "gold standard" transmigration assays containing a dermal organotypic construct surrounded by a fibrin clot as previously described (Greiling and Clark 1997), dried fibrin fibril-coated dishes are washed once with PBS and fibroblast-contracted collagen gels are placed on the surface. Fibrinogen, at a final concentration of 300 μg/ml, is mixed with DMEM and 1.0 U/ml thrombin, added to the wells so that the solution is level with the top of the collagen gel, and allowed to clot at room temperature for 30 min. When needed, other supplements such as 30 ng/ml PDGF-BB are added to the mixture. For HA 3-dimensional transmigration, wells are coated overnight at 37° C. with an appropriate solution of HA. The next day a fibroblast-contracted collagen gel is placed on the HA-coated well in DMEM, with or without 30 ng/ml PDGF-BB, is added so that the solution is level with the top of the collagen gels. All migration assays are quantified after a 24 hour incubation at 37° C. in 100% humidity, 5% CO2 and 95% air.
The number of migrated cells was quantified under a Nikon inverted phase microscope by visually counting identifiable cell nuclei located outside of the contracted collagen gel in the fibrin gel (transmigration assay) or on the matrix (outmigration assay). Within a given experiment each condition was run in triplicate and means ±SD calculated. All experiments were repeated at least three times. Statistical differences among conditions can be determined by ANOVA.
The extracellular matrix of the present invention was tested by use of the in vitro model as described in U.S. patent application Ser. No. 08/723,789, which is hereby incorporated by reference. The basis of the in vitro model is a contracted collagen gel containing fibroblasts which acquire a tissue-like phenotype within the collagen matrix. Surrounding the collagen gel, or dermal equivalent, with a fibrin clot produces a simple inside-outside model of the early cutaneous wound (FIG. 1). Without an added stimulus, no more than a few of the normal adult human dermal fibroblasts within the collagen gel would migrate into the fibrin gel. […]

Substance: CS1: synthetic peptide from the IIICS segment of FN, SEQ ID NO:3 as tested
- effect of synthetic peptide added to the outmigration assay on migration of fibroblasts onto dried FN [1]: slightly enhancing effect in the higher concentrations

Substance: chondroitin sulfate
- effect on wound closure [2]: did not affect wound closure

Substance: fibronectin [FN]
- effect of reduction and alkylation of FN dimer to the monomeric state on ability to mediate adhesion [3]: did not affect
- transmigration on inclusion of FN in the collagen gel and in the fibrin gel ([4]; 30 μg/ml FN in each gel): restored transmigration to a normal level
- transmigration on addition of FN to the FN-depleted fibrin gel ([4]; FN added to fibrin gel): restored
- FN concentration giving optimal cell movement ([4]; FN added to fibrin gel, FN:fibrinogen ratio 1:10): 30 µg/mL
- most effective FN concentration in each gel ([4]; FN in both collagen gel and fibrin gel, 10, 30, or 100 μg/ml tested): 30 µg/mL
- decrease of fibroblast transmigration into the fibrin clot after removal of FN ([4]; FN removed from fibrinogen by gelatin affinity chromatography, 30 ng/ml PDGF-BB): about 80%
- transmigration with FN-free collagen gels ([4]; serum omitted, collagen gel contracted with PDGF-BB): no transmigration occurred
- effect of reduction and alkylation of FN dimer to the monomeric state on ability to mediate migration [1]: did not affect
- percent migration of that observed on FN, no additional protein added to plates ([1]; plates coated with 120 nmol/l protein, mean ± SD, triplicate, FN normalized to 100%): 100 ± 2.7%

Substance: peptide I: synthetic peptide from the heparin II binding domain of FN, SEQ ID NO:6 (YEKPGSPRREVVPRPRGV)
- effect of synthetic peptide added to the outmigration assay on migration of fibroblasts onto dried FN [1]: inhibited the migration of fibroblasts onto dried FN in a dose-dependent manner
- effect of synthetic peptide on migration over collagen ([1]; collagen coated assay plates): inhibitory effect in a dose-dependent manner
